The test concerns the target ROCK2 (human) (UniProt O75116). Kind of test: Inhibition of ROCK2 Kinase Activity.

ROCK2 (human), sequence (O75116 whole entry, looked up): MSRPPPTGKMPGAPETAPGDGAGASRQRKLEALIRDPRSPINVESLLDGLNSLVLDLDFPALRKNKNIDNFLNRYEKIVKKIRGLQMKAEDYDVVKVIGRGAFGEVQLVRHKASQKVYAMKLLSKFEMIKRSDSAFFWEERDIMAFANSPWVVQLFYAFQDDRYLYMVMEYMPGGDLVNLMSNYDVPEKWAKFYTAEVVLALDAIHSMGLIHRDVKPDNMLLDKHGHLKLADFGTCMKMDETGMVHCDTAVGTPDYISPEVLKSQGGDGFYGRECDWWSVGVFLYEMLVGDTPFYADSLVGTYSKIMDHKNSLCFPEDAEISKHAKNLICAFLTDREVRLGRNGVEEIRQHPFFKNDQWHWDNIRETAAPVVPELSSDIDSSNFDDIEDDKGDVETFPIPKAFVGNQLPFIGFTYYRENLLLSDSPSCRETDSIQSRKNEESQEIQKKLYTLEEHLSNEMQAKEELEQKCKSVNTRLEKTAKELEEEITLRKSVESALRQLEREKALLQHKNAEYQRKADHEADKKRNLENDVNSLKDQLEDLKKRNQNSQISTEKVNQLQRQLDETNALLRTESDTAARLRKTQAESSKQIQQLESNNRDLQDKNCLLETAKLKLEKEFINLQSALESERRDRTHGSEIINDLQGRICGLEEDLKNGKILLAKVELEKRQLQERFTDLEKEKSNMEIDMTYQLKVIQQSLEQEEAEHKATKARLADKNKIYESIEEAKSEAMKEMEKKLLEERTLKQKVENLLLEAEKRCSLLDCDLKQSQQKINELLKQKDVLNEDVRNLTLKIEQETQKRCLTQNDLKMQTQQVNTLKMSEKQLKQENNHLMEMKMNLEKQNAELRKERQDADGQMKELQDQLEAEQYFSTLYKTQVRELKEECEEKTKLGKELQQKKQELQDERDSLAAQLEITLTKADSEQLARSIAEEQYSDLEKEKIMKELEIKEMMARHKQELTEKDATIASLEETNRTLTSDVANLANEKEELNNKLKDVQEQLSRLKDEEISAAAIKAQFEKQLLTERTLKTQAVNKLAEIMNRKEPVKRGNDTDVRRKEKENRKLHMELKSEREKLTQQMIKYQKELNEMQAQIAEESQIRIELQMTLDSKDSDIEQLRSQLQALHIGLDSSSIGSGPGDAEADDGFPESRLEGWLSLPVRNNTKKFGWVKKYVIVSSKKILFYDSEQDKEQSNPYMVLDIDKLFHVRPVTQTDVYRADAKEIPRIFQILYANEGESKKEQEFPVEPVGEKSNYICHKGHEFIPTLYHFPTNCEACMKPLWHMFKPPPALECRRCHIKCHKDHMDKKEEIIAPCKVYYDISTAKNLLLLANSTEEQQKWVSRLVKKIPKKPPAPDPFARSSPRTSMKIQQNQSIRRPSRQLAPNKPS

`CCC(C)(C)NC(=O)C(N)c1ccc(C(=O)Nc2ccncc2)cc1` (stereo not given): the IC50 was in the range of 0.5 to 5 µM. With `NC(CC(=O)N1CCN(c2ccccc2)CC1)c1ccc(C(=O)Nc2ccncc2)cc1` (stereo not given), the IC50 is under 0.5 µM. The value for `NC(CC(=O)N1CCN(CCO)CC1)c1ccc(C(=O)Nc2ccncc2)cc1` (stereo not given) was under 0.5 µM; that for `NC(c1ccc(C(=O)Nc2ccncc2)cc1)C1CCCN1S(=O)(=O)c1cccc(Cl)c1` (stereo not given) was 0.5 to 5 µM. The value for `NC(C(=O)NC1CCCCC1)c1ccc(C(=O)Nc2ccncc2)cc1` (stereo not given) was 0.5 to 5 µM; that for `COc1ccc(NC(=O)C(N)c2ccc(C(=O)Nc3ccncc3)cc2)cc1` (stereo not given) was under 0.5 µM. Compound `NC(C(=O)NCCN1CCOCC1)c1ccc(C(=O)Nc2ccncc2)cc1` (stereo not given) yielded an IC50 of 0.5 to 5 µM. For `NC(CNS(=O)(=O)c1ccccc1Cl)c1ccc(C(=O)Nc2ccncc2)cc1` (stereo not given) the value was under 0.5 µM; for `COc1ccc(S(=O)(=O)N2CCCC2C(N)c2ccc(C(=O)Nc3ccncc3)cc2)cc1` (stereo not given), 0.5 to 5 µM. The value for `NC(C(=O)N1CCCC(CO)C1)c1ccc(C(=O)Nc2ccncc2)cc1` (stereo not given) was 0.5 to 5 µM; that for `NC(C(=O)NCc1ccccc1Cl)c1ccc(C(=O)Nc2ccncc2)cc1` (stereo not given) was under 0.5 µM; that for `NC(CNS(=O)(=O)c1cccc(Oc2ccccc2)c1)c1ccc(C(=O)Nc2ccncc2)cc1` (stereo not given) was 0.5 to 5 µM.

Consider `CC1CN(C(=O)C(N)c2ccc(C(=O)Nc3ccncc3)cc2)CC(C)O1` (stereo not given), for which the concentration for half-maximal inhibition (IC50) lay in the range of 0.5 to 5 µM. For `CS(=O)(=O)NCCNC(=O)C(N)c1ccc(C(=O)Nc2ccncc2)cc1` (stereo not given) the value was 0.5 to 5 µM; for `NC(C(=O)NCc1cccc(Cl)c1)c1ccc(C(=O)Nc2ccncc2)cc1` (stereo not given), under 0.5 µM. For `NC(C(=O)N1CC=C(c2ccc(F)cc2)CC1)c1ccc(C(=O)Nc2ccncc2)cc1` (stereo not given) the value was 0.5 to 5 µM.

Compound `NC(CNS(=O)(=O)c1ccc(Cl)cc1)c1ccc(C(=O)Nc2ccncc2)cc1` (stereo not given) registered an IC50 of under 0.5 µM. The value for `NC(CC(=O)N1CCOCC1c1ccc(Cl)cc1)c1ccc(C(=O)Nc2ccncc2)cc1` (stereo not given) was under 0.5 µM.

With `NC(CC(=O)N1CCOCC1)c1ccc(C(=O)Nc2ccncc2)cc1` (stereo not given), the 50% inhibitory concentration (IC50) is under 0.5 µM. `NC(C(=O)NCCc1ccc(F)cc1)c1ccc(C(=O)Nc2ccncc2)cc1` (stereo not given): the IC50 was under 0.5 µM. Turning to `Cc1noc(C)c1S(=O)(=O)NCC(N)c1ccc(C(=O)Nc2ccncc2)cc1` (stereo not given), the 50% inhibitory concentration (IC50) was under 0.5 µM. In turn, `CN(CC(N)c1ccc(C(=O)Nc2ccncc2)cc1)S(=O)(=O)c1ccccc1` (stereo not given) showed an IC50 of 0.5 to 5 µM.

For `NC(CNS(=O)(=O)c1cccc2nonc12)c1ccc(C(=O)Nc2ccncc2)cc1` (stereo not given), the IC50 was under 0.5 µM. For `NC(CC(=O)N1CCN(Cc2ccccc2F)CC1)c1ccc(C(=O)Nc2ccncc2)cc1` (stereo not given) the value was under 0.5 µM; for `NC(C(=O)N1CCc2ccccc2C1)c1ccc(C(=O)Nc2ccncc2)cc1` (stereo not given), under 0.5 µM. On to `NC(CC(=O)N1CCCC1c1ccc(Cl)cc1)c1ccc(C(=O)Nc2ccncc2)cc1` (stereo not given), for which the IC50 is under 0.5 µM. For `CCNC(=O)C(N)c1ccc(C(=O)Nc2ccncc2)cc1` (stereo not given) the value was 0.5 to 5 µM. For `NC(CC(=O)N1CCCC1c1cc(F)ccc1F)c1ccc(C(=O)Nc2ccncc2)cc1` (stereo not given) the value was under 0.5 µM; for `CC1CN(C(=O)CC(N)c2ccc(C(=O)Nc3ccncc3)cc2)CC(C)O1` (stereo not given), under 0.5 µM.

`COCC(C)NC(=O)C(N)c1ccc(C(=O)Nc2ccncc2)cc1` (stereo not given): the 50% inhibitory concentration (IC50) fell in the range of 0.5 to 5 µM.

`NC(CC(=O)N1CCCC2CCCCC21)c1ccc(C(=O)Nc2ccncc2)cc1` (stereo not given) registered a concentration for half-maximal inhibition (IC50) of under 0.5 µM. For `CC(NC(=O)C(N)c1ccc(C(=O)Nc2ccncc2)cc1)c1ccccc1` (stereo not given) the value was under 0.5 µM; for `NC(CC(=O)N1CCC(c2ccccc2)CC1)c1ccc(C(=O)Nc2ccncc2)cc1` (stereo not given), under 0.5 µM; for `NC(c1ccc(C(=O)Nc2ccncc2)cc1)C1CCCN1S(=O)(=O)c1ccccc1Cl` (stereo not given), 0.5 to 5 µM. For `COc1ccc(S(=O)(=O)NCC(N)c2ccc(C(=O)Nc3ccncc3)cc2)cc1` (stereo not given) the value was under 0.5 µM; for `COC(=O)c1ccc2c(c1)CCN(C(=O)CC(N)c1ccc(C(=O)Nc3ccncc3)cc1)C2` (stereo not given), 0.5 to 5 µM; for `CN(CC(N)c1ccc(C(=O)Nc2ccncc2)cc1)S(=O)(=O)c1cccc(Cl)c1` (stereo not given), 0.5 to 5 µM.

`NC(C(=O)N1CCC(Cc2ccccc2)CC1)c1ccc(C(=O)Nc2ccncc2)cc1` (stereo not given) had a half-inhibitory concentration (IC50) of 0.5 to 5 µM.

For the compound `NC(C(=O)Nc1ccccc1)c1ccc(C(=O)Nc2ccncc2)cc1` (stereo not given), the concentration for half-maximal inhibition (IC50) fell in the range of 0.5 to 5 µM. The value for `NC(CC(=O)N1CCCC1c1cccc(Cl)c1)c1ccc(C(=O)Nc2ccncc2)cc1` (stereo not given) was under 0.5 µM; that for `NC(C(=O)N1CCC(c2ccccc2)CC1)c1ccc(C(=O)Nc2ccncc2)cc1` (stereo not given) was 0.5 to 5 µM; that for `NC(CC(=O)N1CCOCC1c1ccccc1)c1ccc(C(=O)Nc2ccncc2)cc1` (stereo not given) was under 0.5 µM. Compound `NC(C(=O)NCc1ccccn1)c1ccc(C(=O)Nc2ccncc2)cc1` (stereo not given) displayed a 50% inhibitory concentration (IC50) of 0.5 to 5 µM.

The compound `NC(CNS(=O)(=O)c1ccc(F)cc1)c1ccc(C(=O)Nc2ccncc2)cc1` (stereo not given) yielded a half-maximal inhibitory concentration (IC50) of under 0.5 µM. The value for `NC(CNS(=O)(=O)c1cccc2nsnc12)c1ccc(C(=O)Nc2ccncc2)cc1` (stereo not given) was under 0.5 µM. For `COc1ccc(S(=O)(=O)N(C)CC(N)c2ccc(C(=O)Nc3ccncc3)cc2)cc1` (stereo not given), the concentration for half-maximal inhibition (IC50) was under 0.5 µM. With `Cc1ccc(S(=O)(=O)NCC(N)c2ccc(C(=O)Nc3ccncc3)cc2)cc1` (stereo not given), the IC50 was under 0.5 µM. The value for `NC(CC(=O)N1CCc2c(Cl)cccc2C1)c1ccc(C(=O)Nc2ccncc2)cc1` (stereo not given) was under 0.5 µM; that for `COc1ccc(S(=O)(=O)NCC(N)c2ccc(C(=O)Nc3ccncc3)cc2)cc1OC` (stereo not given) was under 0.5 µM. For `Cc1nn(C)c(Cl)c1S(=O)(=O)NCC(N)c1ccc(C(=O)Nc2ccncc2)cc1` (stereo not given) the value was 0.5 to 5 µM. In turn, `CN(CC(N)c1ccc(C(=O)Nc2ccncc2)cc1)S(=O)(=O)c1ccccc1Cl` (stereo not given) yielded a half-maximal inhibitory concentration (IC50) of 0.5 to 5 µM. For `NC(CNS(=O)(=O)c1ccc(Oc2ccccc2)cc1)c1ccc(C(=O)Nc2ccncc2)cc1` (stereo not given) the value was 0.5 to 5 µM; for `NC(CC(=O)N1CCCC1c1cccc(F)c1)c1ccc(C(=O)Nc2ccncc2)cc1` (stereo not given), under 0.5 µM.

In turn, `NC(CC(=O)N1CCC(O)(c2ccccc2)CC1)c1ccc(C(=O)Nc2ccncc2)cc1` (stereo not given) registered an IC50 of under 0.5 µM. The value for `Cc1ccccc1S(=O)(=O)NCC(N)c1ccc(C(=O)Nc2ccncc2)cc1` (stereo not given) was under 0.5 µM; that for `CC1CCC(NC(=O)C(N)c2ccc(C(=O)Nc3ccncc3)cc2)CC1` (stereo not given) was 0.5 to 5 µM; that for `CC(C)N1CCN(C(=O)C(N)c2ccc(C(=O)Nc3ccncc3)cc2)CC1` (stereo not given) was 0.5 to 5 µM. The value for `CC[C@H](NC(=O)C(N)c1ccc(C(=O)Nc2ccncc2)cc1)c1ccccc1` (stereo not given in full) was 0.5 to 5 µM.

Consider `N[C@H](C(=O)NCc1ccccc1)c1ccc(C(=O)Nc2ccncc2)cc1`, for which the concentration for half-maximal inhibition (IC50) was under 0.5 µM.

`COc1ccc(CN2CCN(C(=O)C(N)c3ccc(C(=O)Nc4ccncc4)cc3)CC2)cc1` (stereo not given) gave an IC50 of 0.5 to 5 µM.

`NC(CC(=O)N1CCCCC1c1cccc2ccccc12)c1ccc(C(=O)Nc2ccncc2)cc1` (stereo not given) had an IC50 of under 0.5 µM.

For `NC(CNS(=O)(=O)Cc1ccccc1)c1ccc(C(=O)Nc2ccncc2)cc1` (stereo not given), the half-inhibitory concentration (IC50) was under 0.5 µM. `NC(C(=O)N1CCC(c2nc3ccccc3o2)CC1)c1ccc(C(=O)Nc2ccncc2)cc1` (stereo not given) registered a concentration for half-maximal inhibition (IC50) of under 0.5 µM.

The compound `CC(C)N1CCN(C(=O)CC(N)c2ccc(C(=O)Nc3ccncc3)cc2)CC1` (stereo not given) registered a half-inhibitory concentration (IC50) of under 0.5 µM. For `CN(CC(N)c1ccc(C(=O)Nc2ccncc2)cc1)S(=O)(=O)c1cccc(F)c1` (stereo not given) the value was 0.5 to 5 µM; for `NC(C(=O)N1CCN(CCO)CC1)c1ccc(C(=O)Nc2ccncc2)cc1` (stereo not given), 0.5 to 5 µM. The value for `NC(CNS(=O)(=O)c1cccs1)c1ccc(C(=O)Nc2ccncc2)cc1` (stereo not given) was under 0.5 µM; that for `NC(C(=O)NCCn1ccnc1)c1ccc(C(=O)Nc2ccncc2)cc1` (stereo not given) was 0.5 to 5 µM. For `NC(C(=O)NCc1ccco1)c1ccc(C(=O)Nc2ccncc2)cc1` (stereo not given) the value was under 0.5 µM. Turning to `NC(CC(=O)N1CC=C(c2ccc(F)cc2)CC1)c1ccc(C(=O)Nc2ccncc2)cc1` (stereo not given), the concentration for half-maximal inhibition (IC50) was under 0.5 µM. For `CC1CCN(C(=O)C(N)c2ccc(C(=O)Nc3ccncc3)cc2)CC1` (stereo not given) the value was under 0.5 µM.

On to `NC(C(=O)N1CCC(O)(c2ccccc2)CC1)c1ccc(C(=O)Nc2ccncc2)cc1` (stereo not given), for which the 50% inhibitory concentration (IC50) was in the range of 0.5 to 5 µM. For `NC(c1ccc(C(=O)Nc2ccncc2)cc1)C1CCCN1S(=O)(=O)c1ccc(Cl)cc1` (stereo not given) the value was 0.5 to 5 µM; for `NC(CC(=O)N1CCCC1c1ccc(F)cc1F)c1ccc(C(=O)Nc2ccncc2)cc1` (stereo not given), under 0.5 µM. For `COc1ccc(OC)c(S(=O)(=O)NCC(N)c2ccc(C(=O)Nc3ccncc3)cc2)c1` (stereo not given) the value was under 0.5 µM. The value for `NC(CC(=O)N1CCc2c([nH]c3ccccc23)C1)c1ccc(C(=O)Nc2ccncc2)cc1` (stereo not given) was under 0.5 µM; that for `CN(C)CCNC(=O)C(N)c1ccc(C(=O)Nc2ccncc2)cc1` (stereo not given) was 0.5 to 5 µM; that for `NC(C(=O)N1CCCC1c1cccc(F)c1)c1ccc(C(=O)Nc2ccncc2)cc1` (stereo not given) was under 0.5 µM.

`COc1ccc(Cl)cc1C1CCCCN1C(=O)CC(N)c1ccc(C(=O)Nc2ccncc2)cc1` (stereo not given) registered a half-inhibitory concentration (IC50) of under 0.5 µM. For `N[C@H](CC(=O)N1CCC[C@@H]1c1cccc(F)c1)c1ccc(C(=O)Nc2ccncc2)cc1` the value was under 0.5 µM; for `NC(CC(=O)N1CCCC1c1ccc(Cl)c(Cl)c1)c1ccc(C(=O)Nc2ccncc2)cc1` (stereo not given), under 0.5 µM. For `NC(CC(=O)N1CCC(c2c[nH]c3ccccc23)CC1)c1ccc(C(=O)Nc2ccncc2)cc1` (stereo not given) the value was under 0.5 µM.

With `NC(CC(=O)N1CCc2ccc(F)cc2C1)c1ccc(C(=O)Nc2ccncc2)cc1` (stereo not given), the IC50 is under 0.5 µM. With `NC(CC(=O)N1CCC(Cc2ccccc2)CC1)c1ccc(C(=O)Nc2ccncc2)cc1` (stereo not given), the half-maximal inhibitory concentration (IC50) is under 0.5 µM. The value for `NC(CC(=O)N1CCCC1c1ccc(F)cc1)c1ccc(C(=O)Nc2ccncc2)cc1` (stereo not given) was under 0.5 µM; that for `NC(CC(=O)N1CCN(Cc2ccc(F)cc2)CC1)c1ccc(C(=O)Nc2ccncc2)cc1` (stereo not given) was under 0.5 µM; that for `CN(CC(N)c1ccc(C(=O)Nc2ccncc2)cc1)S(=O)(=O)c1ccc(Cl)cc1` (stereo not given) was 0.5 to 5 µM.

Take `CC(C)C(C)NC(=O)C(N)c1ccc(C(=O)Nc2ccncc2)cc1` (stereo not given): the 50% inhibitory concentration (IC50) fell in the range of 0.5 to 5 µM.

On to `NC(C(=O)NCc1ccccc1)c1ccc(C(=O)Nc2ccncc2)cc1` (stereo not given), for which the IC50 was under 0.5 µM. For `N[C@@H](C(=O)NCc1ccccc1)c1ccc(C(=O)Nc2ccncc2)cc1` the value was 0.5 to 5 µM.

Values taken from the Kinase Knowledgebase extract (Sharma et al. 2016).
